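In this assay, cells in 96-well plates receive the compound at five concentrations for 48 hours. Endpoints are linearly interpolated between the surrounding concentrations. GI50 = concentration required for 50% inhibition of growth. TGI is the concentration that stops growth completely.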 Bounds are passed on as bounds.

Among the test systems are COLO 205 colon; HCT-15 colon; NCI-H460 lung; SK-OV-3 ovarian; HT29 colon; NCI/ADR-RES ovarian; TK-10 renal.
Holding throughout (assay): growth of human tumour cells (NCI), 48 h

On to `CNCCNc1nc2ccccc2c2c(=O)c3cc(OC)ccc3sc12`, for which the GI50 with COLO 205 colon is 1.64 µM; in the experiment on HCT-15 colon, 1.39 µM; in the experiment on NCI-H460 lung, 1.71 µM; with SK-OV-3 ovarian, 1.82 µM; in the experiment with HT29 colon, 1.52 µM; in the experiment on NCI/ADR-RES ovarian, 1.68 µM. The TGI is 3.34 µM in the experiment with COLO 205 colon; 2.83 µM with HCT-15 colon; 3.25 µM in the experiment with NCI-H460 lung; 3.97 µM with SK-OV-3 ovarian; 3.26 µM in the experiment with HT29 colon; 3.48 µM in the experiment with NCI/ADR-RES ovarian.
On to `CC(/C=C/NNC1=NC(c2ccccc2)C(c2ccccc2)=NN1)Sc1ccccc1N` (stereo not drawn), for which the TGI in the experiment on COLO 205 colon turned out to be 31 µM; in the experiment with HCT-15 colon, 19.8 µM; in the experiment with NCI-H460 lung, 24.9 µM; in the experiment on SK-OV-3 ovarian, 31 µM; in the experiment on HT29 colon it was 23.9 µM; in the experiment with TK-10 renal, 27.2 µM.
Take `C/C=C(/C)c1cnc(CC(C)C)c(=O)[nH]1`: the TGI with COLO 205 colon, with HCT-15 colon, in the experiment on NCI-H460 lung, in the experiment with SK-OV-3 ovarian, with HT29 colon and in the experiment on TK-10 renal was greater than 100 µM throughout.
As for `CCCCN(CC)c1ncnc2ccc(Br)cc12`, the GI50 is 20.4 µM in the experiment on COLO 205 colon; 22.1 µM in the experiment with HCT-15 colon; 17.9 µM with NCI-H460 lung; 18.8 µM with SK-OV-3 ovarian; 15.6 µM in the experiment on NCI/ADR-RES ovarian; 19.7 µM with TK-10 renal. The TGI was 63.7 µM in the experiment with COLO 205 colon; 54.7 µM in the experiment on HCT-15 colon; 52.9 µM with NCI-H460 lung; 49.4 µM with SK-OV-3 ovarian; 39.8 µM with NCI/ADR-RES ovarian; 39.8 µM in the experiment on TK-10 renal.
In the case of `COc1cc2c3c(ncc2c(OC)c1OC)-c1cc2c(cc1C3)OCO2`, the GI50 was greater than 100 µM in the experiment on COLO 205 colon; 32.6 µM in the experiment on HCT-15 colon; greater than 100 µM in the experiment on NCI-H460 lung; 21.6 µM in the experiment on SK-OV-3 ovarian; 36.9 µM in the experiment on NCI/ADR-RES ovarian; 19.3 µM in the experiment with TK-10 renal. Besides, the TGI with COLO 205 colon was greater than 100 µM; with HCT-15 colon, greater than 100 µM; in the experiment with NCI-H460 lung it was greater than 100 µM; in the experiment on SK-OV-3 ovarian, 61.4 µM; with NCI/ADR-RES ovarian it was greater than 100 µM; in the experiment with TK-10 renal, 46.5 µM.
Regarding `CNCCNc1nc2ccccc2c2c(=O)c3cc(F)ccc3sc12`, the GI50 is 1.67 µM in the experiment with COLO 205 colon; 1.65 µM in the experiment with HCT-15 colon; 1.78 µM in the experiment with NCI-H460 lung; 2.13 µM in the experiment on SK-OV-3 ovarian; 1.59 µM with HT29 colon; 1.82 µM with NCI/ADR-RES ovarian. Moreover, the TGI came out at 3.36 µM with COLO 205 colon; 3.26 µM in the experiment on HCT-15 colon; 3.32 µM with NCI-H460 lung; 7.58 µM in the experiment with SK-OV-3 ovarian; 3.2 µM with HT29 colon; 3.83 µM in the experiment on NCI/ADR-RES ovarian.
Regarding `CCN(CC)CCOc1c(OC)c(Br)cc2c(C)c(C(=O)OC)oc12`, the GI50 with COLO 205 colon is 0.925 µM; with HCT-15 colon it was 0.864 µM; in the experiment on NCI-H460 lung, 1.31 µM; in the experiment with SK-OV-3 ovarian, 1.29 µM; in the experiment with NCI/ADR-RES ovarian, 6.45 µM; in the experiment with TK-10 renal, 1.12 µM. Besides, the TGI in the experiment on COLO 205 colon is 3.68 µM; with HCT-15 colon, 2.46 µM; with NCI-H460 lung, 3.75 µM; in the experiment on SK-OV-3 ovarian, 4.1 µM; in the experiment on NCI/ADR-RES ovarian it was 12.8 µM; in the experiment on TK-10 renal it was 2.99 µM.
Consider `COC(=O)c1ccc(CN2C(=O)C(Cl)=C(Nc3ccc(OC)c(Cl)c3)C2=O)cc1`, for which the GI50 is 17 µM in the experiment with COLO 205 colon; 5.2 µM with HCT-15 colon; 14.8 µM in the experiment with NCI-H460 lung; 33.9 µM with SK-OV-3 ovarian; 12.7 µM in the experiment on NCI/ADR-RES ovarian; greater than 50 µM in the experiment with TK-10 renal. Moreover, the TGI in the experiment with COLO 205 colon is greater than 50 µM; in the experiment on HCT-15 colon it was 42.4 µM; with NCI-H460 lung, greater than 50 µM; in the experiment with SK-OV-3 ovarian it was greater than 50 µM; in the experiment on NCI/ADR-RES ovarian, 30.9 µM; in the experiment on TK-10 renal, greater than 50 µM.
With `COC(=O)[C@H]1[C@H]2C[C@@H]3c4[nH]c5cc(OC)ccc5c4CCN3C[C@H]2C[C@@H](OC(=O)/C=C/c2cc(OC)c(OC)c(OC)c2)[C@@H]1OC`, the GI50 with COLO 205 colon was 3.69 µM; in the experiment with HCT-15 colon it was 4.32 µM; in the experiment with NCI-H460 lung it was 4.82 µM; in the experiment on SK-OV-3 ovarian it was 15.4 µM; in the experiment on NCI/ADR-RES ovarian it was 4.55 µM; with TK-10 renal, 3.35 µM. Moreover, the TGI in the experiment on COLO 205 colon was 14.8 µM; in the experiment with HCT-15 colon it was greater than 100 µM; with NCI-H460 lung, greater than 100 µM; in the experiment on SK-OV-3 ovarian it was 32.3 µM; with NCI/ADR-RES ovarian, 28.5 µM; in the experiment on TK-10 renal, 11.3 µM.
For the molecule `CC[C@H](Nc1nc(N)nc(C2CC2)c1C#N)c1nc2cccc(NCc3ccc(C(=O)NO)cc3)c2c(=O)n1-c1ccccc1`, the GI50 in the experiment with COLO 205 colon was 2.24 µM; in the experiment on HCT-15 colon, 2.05 µM; with NCI-H460 lung it was 1.7 µM; with SK-OV-3 ovarian, 1.9 µM; in the experiment with NCI/ADR-RES ovarian it was 3.31 µM; with TK-10 renal, 2.75 µM. The TGI came to 5.75 µM with COLO 205 colon; 6.96 µM with HCT-15 colon; 3.79 µM in the experiment with NCI-H460 lung; 4.38 µM in the experiment with SK-OV-3 ovarian; 15.6 µM in the experiment with NCI/ADR-RES ovarian; 30.3 µM in the experiment with TK-10 renal.

For the origin of these results see PubChem BioAssay (NCI).
